Tests used:
[1] = target: Wild-type FOXO3A (Homo sapiens) (UniProt O43524); experiment: cell_activity; details: luciferase in adult mouse muscle
[2] = target: Constitutively active FOXO3A constitutively active (AKT phosphorylation sites, residues not stated) (Homo sapiens) (UniProt O43524); experiment: cell_activity; details: luciferase in adult mouse muscle
atrogin-1 [3] = experiment: Northern blot of atrogin-1 mRNA in C2C12 myotubes; format: cell-based, mouse
Experimental: (§1) C2C12 mouse myoblasts (ATCC) were cultured in DMEM 10% FCS (ATCC) until the cells reached confluence. At that time, the medium was replaced with DMEM 2% horse serum (HS) (ATCC) (“differentiation medium”) and incubated for 4 days to induce myotube formation before proceeding with experiments. Pharmacological agents were variously used at the following final concentrations: dexamethasone (1 μM; Sigma), IGF-1 (10 ng/ml; Sigma), LiCl (10 mM; Sigma), LY294002 (10 μM, from 10 mM stock in DMSO, Calbiochem). For infection, myotubes were incubated with adenovirus at a multiplicity of infection (MOI) of 250 in differentiation medium for 18 h, and then medium was replaced. Under these conditions, infection efficiency was greater than 90%. Typical experiments for RNA and protein analysis were performed in 6-well plates. Myotube diameter was quantified as follows: five different fields at 100× magnification were chosen randomly and myotubes were measured using IMAGE software (Scion, Frederick, Md.) as previously performed (Rommel et al., 2001). All data are expressed as the mean of five measurements taken along the length of the myotube±SEM. Comparisons were made using the student's t test, with p<0.05 being considered statistically significant.
After incubation, myotubes were washed in PBS and total RNA was extracted using TRizo1 reagent (Invitrogen) according to the manufacturer's specifications. Northern blotting was performed as described elsewhere (Gomes et al., 2001). Briefly, total RNA was separated on formaldehyde-agarose gels, transferred to Zeta-Probe membrane (Bio-Rad) and UV-crosslinked. Membranes were hybridized with a full length mouse atrogin-1 probe, at 65 ° C., in Church buffer (Church and Gilbert, 1984), and analyzed by using a Fuji Phosphorimager. Blots were stripped and reprobed with a mouse GADPH probe (Ambion) to ensure equal-loading and gel transfer. The relative amounts of the bands were quantified by densitometry.

C2C12 myotubes = experiment: Myotube diameter in C2C12 myotube cultures; format: cell-based, mouse; details: dexamethasone (1 μM) for 24 hrs
Experimental: as §1

Foxo1, 3 and Foxo4 = experiment: Immunoblot of phosphorylated Foxo factors in C2C12 myotubes; format: cell-based, mouse
Experimental: (§2) Anti-phospho-AKT (Ser473), anti-phospho-mTOR (Ser2448), anti-phospho-p70S6K (Thr389), anti-phospho-Foxo1 (Ser 256), anti-phospho-Foxo4 (Ser 193), anti-AKT, anti-p70S6K and anti-Foxo1 were purchased from Cell Signaling. Anti-phospho-Foxo3 (Thr32) and the FKHR (Foxo1)-GST fusion protein were from Upstate. All primary antibodies were rabbit potyclonal antibodies. HRP-conjugated goat anti-rabbit antibody was from Promega.
C2C12 mouse myoblasts (ATCC) were cultured in DMEM 10% FCS (ATCC) until the cells reached confluence. At that time, the medium was replaced with DMEM 2% horse serum (HS) (ATCC) (“differentiation medium”) and incubated for 4 days to induce myotube formation before proceeding with experiments. […] Myotube diameter was quantified as follows: five different fields at 100× magnification were chosen randomly and myotubes were measured using IMAGE software (Scion, Frederick, Md.) as previously performed (Rommel et al., 2001). All data are expressed as the mean of five measurements taken along the length of the myotube±SEM. […]
Myotube protein was also extracted with TRizo1 reagent according to the manufacturer's instructions. Protein concentration was determined by BCA assay (Pierce). […] The relative amounts of the bands were quantified by densitometry using ImageJ software.

S6K = experiment: Immunoblot of phosphorylated S6K in C2C12 myotubes; format: cell-based, mouse
Experimental: as §2, §1
Myotube protein was also extracted with TRizo1 reagent according to the manufacturer's instructions. Protein concentration was determined by BCA assay (Pierce). SDS-PAGE was performed on 4-12% gradient gels (Novex, Invitrogen) loading 20 μg protein/lane. […] The relative amounts of the bands were quantified by densitometry using ImageJ software.

AKT = experiment: Immunoblot of phospho-AKT to total AKT in C2C12 myotubes; format: cell-based, mouse; details: dexamethasone treatment for 24 hrs, densitometric analysis
Experimental: Myotube protein was also extracted with TRizo1 reagent according to the manufacturer's instructions. Protein concentration was determined by BCA assay (Pierce). SDS-PAGE was performed on 4-12% gradient gels (Novex, Invitrogen) loading 20 μg protein/lane. Westerns were performed as previously (Gomes et al., 2001) and were visualized with ECL detection reagents (Amersham). […] The relative amounts of the bands were quantified by densitometry using ImageJ software.

atrogin-1 [4] = details: reported from Sacheck et al. (manuscript submitted) or Li et al. 2003a; cited from earlier work
FoxoGST = target: T1, FoxoGST (Homo sapiens, UniProt Q12778); experiment: Electrophoretic mobility shift assay with purified FoxoGST; format: binding; details: for competition of FoxoGST-IGFBP1 complex formation by unlabeled oligonucleotide: 100-fold molar excess of cold competitor; for binding of FoxoGST to 32P-labeled oligonucleotide: gel shift; for competition of FoxoGST-AT Foxo 1 complex formation: increasing amounts of unlabeled oligonucleotide
T1 construct: purchased Upstate
Description: Double stranded oligonucleotides were labeled by T4 Polynucleotide kinase and […] (Promega). The following pairs of oligonucleotides were used (Forkhead sites are underlined): IGFBP1: 5′-[…]-3′ (SEQ ID NO:9) and 5′-[…] (SEQ ID NO:10); SP 1:5′-[…]-3′ (SEQ ID NO:11) and 5′[…]-3′ (SEQ ID NO:12); ATFoxo 1: 5′-GGGATAAATACT-GTGCTCGGGCAG-3′ (SEQ ID NO:13) and 5′-[…]-3′ (SEQ ID NO:14). ATFoxo 1mut: 5′-[…]-3′ (SEQ ID NO:15) and 5′ […]-3′ (SEQ ID NO:16). Reactions using the Gel Shift Assay System (Promega) contained the cold competitor (100-fold molar excess over labeled oligonucleotide) and 1 μl of purified FoxoGST (Upstate), and were incubated at room temperature for 10 min. The samples were then mixed with ^32P-labeled oligonucleotides for 20 min and loaded on Novex 6% DNA retardation gels (Invitrogen). After electrophoresis the gels were dried and analyzed using a Fuji Phosphorimager system.

T1 sequence (Q12778 whole entry): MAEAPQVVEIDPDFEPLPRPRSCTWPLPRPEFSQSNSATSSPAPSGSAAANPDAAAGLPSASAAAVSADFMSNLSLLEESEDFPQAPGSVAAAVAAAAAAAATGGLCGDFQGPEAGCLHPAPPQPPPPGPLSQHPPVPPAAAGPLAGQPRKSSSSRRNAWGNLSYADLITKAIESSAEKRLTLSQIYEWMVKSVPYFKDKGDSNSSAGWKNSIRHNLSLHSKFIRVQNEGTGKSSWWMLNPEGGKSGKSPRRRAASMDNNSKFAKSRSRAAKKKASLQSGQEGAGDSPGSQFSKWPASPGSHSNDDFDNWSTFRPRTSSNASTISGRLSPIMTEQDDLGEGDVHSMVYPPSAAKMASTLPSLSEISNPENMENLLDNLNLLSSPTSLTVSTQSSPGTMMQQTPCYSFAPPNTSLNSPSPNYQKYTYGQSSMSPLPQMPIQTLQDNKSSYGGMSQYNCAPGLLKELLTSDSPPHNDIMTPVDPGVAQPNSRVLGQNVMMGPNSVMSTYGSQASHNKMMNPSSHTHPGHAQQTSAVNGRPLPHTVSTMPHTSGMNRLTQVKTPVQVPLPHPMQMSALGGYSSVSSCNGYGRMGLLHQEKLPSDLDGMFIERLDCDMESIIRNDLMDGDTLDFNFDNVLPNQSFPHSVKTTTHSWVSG
Sequence of Wild-type FOXO3A (Homo sapiens) (O43524 whole entry): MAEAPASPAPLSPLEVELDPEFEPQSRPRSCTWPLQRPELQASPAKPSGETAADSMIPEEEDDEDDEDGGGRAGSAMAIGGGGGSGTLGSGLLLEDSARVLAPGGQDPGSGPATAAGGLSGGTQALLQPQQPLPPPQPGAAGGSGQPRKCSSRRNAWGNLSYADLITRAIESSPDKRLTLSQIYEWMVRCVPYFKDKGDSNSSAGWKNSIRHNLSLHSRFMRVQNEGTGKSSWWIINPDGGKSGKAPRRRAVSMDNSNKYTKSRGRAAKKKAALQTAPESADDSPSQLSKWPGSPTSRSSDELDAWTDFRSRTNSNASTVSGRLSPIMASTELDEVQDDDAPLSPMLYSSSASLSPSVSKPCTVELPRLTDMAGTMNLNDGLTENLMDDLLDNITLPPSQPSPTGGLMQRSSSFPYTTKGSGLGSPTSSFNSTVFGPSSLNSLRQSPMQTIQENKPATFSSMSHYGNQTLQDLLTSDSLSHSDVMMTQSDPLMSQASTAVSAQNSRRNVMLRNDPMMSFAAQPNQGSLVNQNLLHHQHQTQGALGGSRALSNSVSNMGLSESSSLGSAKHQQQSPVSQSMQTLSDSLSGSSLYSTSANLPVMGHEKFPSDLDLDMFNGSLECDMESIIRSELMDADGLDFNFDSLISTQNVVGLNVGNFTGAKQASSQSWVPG
Sequence of Constitutively active FOXO3A constitutively active (AKT phosphorylation sites, residues not stated) (Homo sapiens) (O43524 whole entry): as above

3.5 kb atrogin-1 promoter
activity [1]: 3 fold | activity [2]: > 20 fold

[Cl-].[Li+] [LiCl, reference compound]
effect on atrogin-1 induction by dexamethasone (atrogin-1 [3]; myotubes, 1 μM dexamethasone 24 hrs): unable to decrease

C[C@@H]1C[C@H]2[C@@H]3CCC4=CC(=O)C=C[C@]4(C)[C@@]3(F)[C@@H](O)C[C@]2(C)[C@@]1(O)C(=O)CO [dexamethasone, reference compound]
reduction in mean myotube diameter (C2C12 myotubes): 40% | decrease in levels of phosphorylated Foxo1 and 3 (Foxo1, 3 and Foxo4; glucocorticoid treatment 24 hrs): at least 30% | decrease in level of phosphorylated S6K (S6K; dexamethasone treatment 24 hrs): 10% | fall in ratio of phospho-AKT to total AKT (AKT): 30% | increase in atrogin-1 mRNA content (atrogin-1 [3]; cultured myotubes treated with dexamethasone (1 μM) for 24 hrs): 2-3 fold

OO [hydrogen peroxide]
effect on atrogin-1 expression in myotubes (atrogin-1 [4]): expression of atrogin-1 rose

ATFoxo 1: double stranded oligonucleotide with atrogin-1 promoter forkhead site ATAAATA (SEQ ID NO:13/14) (chain 1 GGGATAAATACTGTGCTCGGGCAG; chain 2 CTGCCCGAGCACAGTATTTATCCC; listed as DNA, chemistry not fully specified)
competition of FoxoGST-IGFBP1 complex formation by unlabeled oligonucleotide (FoxoGST): markedly reduced | binding of FoxoGST to 32P-labeled oligonucleotide (FoxoGST): bound | competition of FoxoGST-AT Foxo 1 complex formation (FoxoGST): able to block

ATFoxo 1mut: mutated version of the site, ATCACTA (SEQ ID NO:15/16) (chain 1 GGGATCACTACTGTGCTCGGGCAG; chain 2 CTGCCCGAGCACAGTAGTGATCCC; listed as DNA, chemistry not fully specified)
competition of FoxoGST-IGFBP1 complex formation by unlabeled oligonucleotide (FoxoGST): did not prevent complex formation | binding of FoxoGST to 32P-labeled oligonucleotide (FoxoGST): did not bind | competition of FoxoGST-AT Foxo 1 complex formation (FoxoGST): not

IGF-1: insulin-like growth factor-1, used at 10 ng/ml (Sigma)
effect on phosphorylated Foxo1, 3 and 4 in either model of atrophy (Foxo1, 3 and Foxo4; IGF-1 10 ng/ml, starved or dexamethasone-treated myotubes): increased the levels of phosphorylated Foxo1, 3, and 4 | S6K phosphorylation after IGF-1 addition (S6K; dexamethasone-treated cultures): restored S6K phosphorylation | S6K phosphorylation after IGF-1 addition (S6K; starved cells): remained largely dephosphorylated | effect on atrogin-1 mRNA in either model of atrophy (atrogin-1 [3]; IGF-1 10 ng/ml added to starved (6 hrs) or dexamethasone-treated (24 hrs) myotubes): suppressed atrogin-1 mRNA to the level in untreated myotubes | effect of IGF-1 on atrogin-1 mRNA (atrogin-1 [3]; cells expressing the constitutively active Foxo3): did not reduce | decrease in atrogin-1 mRNA content by IGF-1 (atrogin-1 [3]; cells expressing the wild type Foxo3, IGF-1 10 ng/ml): 3 fold

oligonucleotide containing an SP1 binding site: unrelated oligonucleotide containing an SP1 binding site (SEQ ID NO:11/12) (chain 1 ATTCGATCGGGGCGGGGCGAG; chain 2 CTCGCCCCGCCCCGATCGTAA; listed as DNA, chemistry not fully specified) [reference compound]
competition of FoxoGST-IGFBP1 complex formation by unlabeled oligonucleotide (FoxoGST): did not prevent complex formation

B1: IGFBP1 oligonucleotide: control oligonucleotide containing a known forkhead site from the IGFBP1 promoter (SEQ ID NO:9/10) (nucleic acid)
chain 1: CTAGCAAGCAAAACAAACTTATTTTGAACACGGGG
chain 2: CCCCGTGTTCAAAATAAGTTTGTTTTGCTTGCTAG
modifications: listed as DNA, chemistry not fully specified
competition of FoxoGST-IGFBP1 complex formation by unlabeled oligonucleotide (FoxoGST): prevented formation | binding of FoxoGST to 32P-labeled oligonucleotide (FoxoGST): bound

From patent publication US20060069049A1, “Methods and reagents related to foxo” (President and Fellows of Harvard College, priority 2003, published 2006)
